{"source": "patent US20260250639A1", "about": "“REPROGRAMMING METHOD” (Babraham Institute, priority 2022, published 2026)", "key": {"NSO4G neural stem cells": {"tested_on": "NSO4G neural stem cells", "test": "Yamanaka factor-mediated reprogramming of NSO4G neural stem cells to iPSCs, flow cytometry of OCT4-GFP positive cells", "assay_type": "cell-based, mouse", "conditions": "NSC reprogramming culture, end of reprogramming (day 15)", "description": "FIG. 1: Schematic of method of reprogramming of mouse neural stem cells into induced pluripotent stem (iPS) cells. The mouse neural stem cell (NSC) line NSO4G harbours the GFP transgene under the control of Oct4 regulatory elements. […] Upon reprogramming, iPSCs grow in colonies and express GFP, allowing their visualisation and isolation from the remaining, non-reprogrammed cells.\nA-C) Yamanaka factor-mediated reprogramming of NSO4G neural stem cells. D) Yamanaka factor-mediated reprogramming of human fibroblasts. A) Schematic representation of the experimental design for data in panels B and C. B) Flow cytometry plots (left) and quantification data (right) for the number of GFP-positive cells at the end of reprogramming, in the presence of PADI4 or control shRNAs. C) Flow cytometry plots (left) and quantification data (right) for the number of GFP-positive cells at the end of reprogramming, in the presence of CI-amidine or vehicle control. D) Quantification of iPS colonies, as a measure of the degree of reprogramming, after Yamanaka factor-mediated reprogramming of human fibroblasts, in the presence of two independent PADI4 inhibitors (CI-amidine or GSK484) or vehicle controls. […]\nTo investigate the timing of PADI4 expression during reprogramming, the method of reprogramming neural stem cells (NSCs) to iPSCs described in Theunissen et al. (2011) Current Biology, 21(1): 65-71 (doi: https://doi.org/10.1016/j.cub.2010.11.074) was used (FIG. 1). […] At various reprogramming timepoints, the reprogramming cells were harvested and the levels of mRNA encoding PADI4 and NANOG were quantified by qPCR (FIG. 2A) and protein levels (FIG. 2B). […]\nMedium was conditioned by culture on NSC reprogramming cultures (FIG. 5A, “Conditioned medium”, bottom panel) or by incubated in empty plates lacking cells under the same conditions (FIG. 5A, “Control medium”, top panel) and added to new reprogramming (receiving) cultures after every 24 h. Reprogramming efficiency of the receiving cultures was assessed by flow cytometry based GFP quantification at the end of the reprogramming assay (day 15). […]"}, "human fibroblasts": {"tested_on": "human fibroblasts", "test": "Yamanaka factor-mediated reprogramming of human fibroblasts, iPS colony count", "assay_type": "cell-based", "conditions": "human fibroblast reprogramming culture without OCT4-GFP reporter, vs vehicle control", "description": "A-C) Yamanaka factor-mediated reprogramming of NSO4G neural stem cells. D) Yamanaka factor-mediated reprogramming of human fibroblasts. A) Schematic representation of the experimental design for data in panels B and C. B) Flow cytometry plots (left) and quantification data (right) for the number of GFP-positive cells at the end of reprogramming, in the presence of PADI4 or control shRNAs. C) Flow cytometry plots (left) and quantification data (right) for the number of GFP-positive cells at the end of reprogramming, in the presence of CI-amidine or vehicle control. D) Quantification of iPS colonies, as a measure of the degree of reprogramming, after Yamanaka factor-mediated reprogramming of human fibroblasts, in the presence of two independent PADI4 inhibitors (CI-amidine or GSK484) or vehicle controls. The inhibitors were administered throughout the course of reprogramming.\nFIG. 10: Inhibition of extracellular chromatin component-sensing pathways inhibits reprogramming. A) Schematic representation of the extra-nuclear DNA sensing pathway cGAS/STING (left panel). Flow cytometry-based quantification of GFP-positive cells at the end of NSC reprogramming (day 15), in the presence of STING inhibitor H-151, vehicle control (DMSO) or no treatment (right panel). B) Schematic representation of the signalling pathway downstream of the Damage Associated Molecular Pattern (DAMP)-sensing Toll-Like Receptor 2 (TLR2; left panel). Flow cytometry-based quantification of GFP-positive cells at the end of NSC reprogramming (day 15), in the presence of TLR2 inhibitor MMG-11, vehicle control (DMSO) or no treatment (right panel). C) Colony count data for quantification of reprogramming of human fibroblast cells at the end of reprogramming (day 40) after treatment with STING inhibitor H-151 (left panel), TLR2 inhibitor MMG-11 (right panel) or vehicle control (DMSO)."}, "[1]": {"tested_on": "citrullinated histone H3 (H3Cit), product of PADI4 activity", "test": "Western blot for citrullinated histone H3 in conditioned medium of NSC reprogramming cultures", "assay_type": "cell-based, mouse", "conditions": "conditioned medium from reprogramming cultures, similar total histone H3", "description": "FIG. 7: Citrullinated histones are found in culture medium conditioned by reprogramming cultures. Immunoblot analysis for total histone H3 (top) and two different citrullination marks on histone H3 (middle and bottom) on conditioned medium of NSC reprogramming cells cultured in the presence or absence or the PADI4 inhibitor CI-amidine. Data from two independent experiments are shown. Citrullinated histone H3 is readily detected in the conditioned medium and inhibited by CI-amidine.\nBased on this finding, the conditioned medium of Example 4 was analysed for the presence of H3Cit by Western blot (FIG. 7). Citrullinated histone H3 (H3Cit) can be readily detected in the conditioned medium from reprogramming cultures (FIG. 7, middle and lower panels labelled “H3CitR2” and H3CitR8”, lanes labelled “-CI-am”), and this is reduced in conditioned medium from reprogramming cultures in which the PADI4 inhibitor CI-amidine has been added (FIG. 7, middle and lower panels labelled “H3CitR2” and H3CitR8”, lanes labelled “+CI-am”), despite similar levels of total histone H3 being present (FIG. 7, top panel labelled “H3”)."}}, "data": [{"smiles": "NC(=O)[C@H](CCCN=C(N)CCl)NC(=O)c1ccccc1", "note": "[CI-amidine]", "values": [{"measurement": "proportion of OCT4-GFP positive cells (reprogramming cells) at the end of reprogramming", "setting": "NSO4G neural stem cells", "value": "The same result is achieved"}, {"measurement": "number of colonies (successfully reprogrammed cells)", "setting": "human fibroblasts", "value": "significantly reduced"}, {"measurement": "citrullinated histone H3 (H3CitR2, H3CitR8) detected in conditioned medium", "setting": "[1]", "value": "reduced"}]}, {"smiles": "COc1cc(C(=O)N2CC[C@@H](O)[C@@H](N)C2)cc2nc(-c3cc4ccccc4n3CC3CC3)n(C)c12", "note": "[GSK484]", "values": [{"measurement": "number of colonies (successfully reprogrammed cells)", "setting": "human fibroblasts", "value": "significantly reduced"}]}, {"smiles": "CCc1ccc(NC(=O)Nc2c[nH]c3ccccc23)cc1", "note": "[H-151]", "values": [{"measurement": "proportion of OCT4-GFP positive cells (reprogramming cells) at the end of reprogramming", "setting": "NSO4G neural stem cells", "value": "significantly reduced"}, {"measurement": "number of colonies (successfully reprogrammed cells)", "setting": "human fibroblasts", "value": "significantly reduced number of colonies"}]}, {"smiles": "CCOC(=O)c1ccc(CC(=O)c2ccc(O)c(O)c2O)o1", "note": "[MMG-11]", "values": [{"measurement": "proportion of OCT4-GFP positive cells (reprogramming cells) at the end of reprogramming", "setting": "NSO4G neural stem cells", "value": "significantly reduced"}, {"measurement": "number of colonies (successfully reprogrammed cells)", "setting": "human fibroblasts", "value": "significantly reduced number of colonies"}]}]}
